Measured values from patent publication US20030138864A1, “Method for identifying an enzyme to design anti-cancer compounds” (priority 2001, published 2003).
Like-named read-outs stand apart in the source and are kept apart here.

Experiments:
[1] = tested on: HCT116/S5: HCT116 transfected with the human microsomal dipeptidase cDNA; test: Growth inhibition (cytotoxicity, WST-8) of HCT116/S5 cells expressing a high level of microsomal dipeptidase; format: cell-based; conditions: for Growth inhibition compared among HCT116, HCT116/S5 and granulocyte progenitor cells: HCT116/S5 (high microsomal dipeptidase) versus HCT116 and granulocyte progenitor cells (very little activity); for IC50: Homo sapiens, HCT-116, drug exposure time, read-out: Cytotoxicity (IC50 in nM) HCT116/S5
Protocol: (§1) The activation of the compounds is mediated by microsomal dipeptidase. The inhibitory activities of the compounds is determined against growth of the cells expressing a low level of microsomal dipeptidase, those expressing a high level of microsomal dipeptidase, and granulocyte progenitors that are expanded ex vivo. The human colon cancer cell line, HCT116 (American Type Culture Collection No. CCL-247), and granulocyte progenitors are used as the cells expressing only a low level of microsomal dipeptidase. A stable transfectant, HCT116/S5, into which the human microsomal dipeptidase cDNA (herafter called MDP) connected to the CMV promoter was transfected, is used as the cells expressing a high level of microsomal dipeptidase. The dipeptidase cDNA (Satoh et al. Biotechnol. Prog. 10 (2), 134-140 (1994)) and other references) and the cloning procedures as mentioned are known in the art. HCT116, HCT116/S5, and granulocyte porogenitors are cultured in the absence and presence of the drugs. […] The IC50 values are determined and compared among HCT116, HCT116/S5, and granulocyte porogenitors. Although time duration of the exposure of the cells to the drugs varies depending on the cells and drugs, it can be 24 hr, 96 or 168 hr.
Transfection of the DNA was carried out by using TransIT-LT2 (PanVera, Madison, USA, Calatog No. MIR2320) according to the manufacturer's instruction. The resulting transfectants were cultivated in MaCoy5A medium (Sigma, St Louis, USA, Catalog No. M8403) supplemented with 10% (v/v) fetal bovine serum and 1 mg/ml of geneticin disulfate (Wako, Osaka, Japan, Catalog No. 535-24624). The cells that grew in the presence of 1 mg/ml G418 were collected and cultivated in MaCoy5A medium.
(§2) By using 96-multi well plates, approximately 2×10^3 cells per well of the HCT116 bearing pRC/CMV and HCT116S5 carrying pRC/CMV-MDP were cultured in 200 μl of McCoy5A medium supplemented with 10% FBS in the presence or absence of the indicated concentrations of the drugs at 37° C. under 5% CO2 in humidified air. The cells were exposed to drugs for 24 hr (taxol, camptothecins and their prodrugs) or 96 hr (DMDC and its compounds). When the drug exposure time to the cells was 24 hr, culture medium containing drugs were removed, and the cells were washed and suspended in the fresh medium without drugs and further cultured at 37° C. under 5% CO2 in humidified air for the indicated days. Then, 10 μl of WST-8 (Cell Counting Kit-8, Wako, Osaka, Japan, Catalog No.343-07623) were added to the cultures, and the cells were further incubated at 37° C. for 1 or 2 hr. Cell growth inhibition was calculated as IC50 values according to optical densities at 450 nm and at 655 nm. To examine the effects of drugs on granulocyte progenitors, the granulocyte progenitors, which were expanded on a monolayer of MS-5 for 7 days, were collected and washed with RPMI1640 medium. Approximately 5000 cells were suspended in 200 μl of RPMI medium supplemented with 10% FBS and 50 ng/ml of G-CSF in the presence or absence of drugs and cultured in the presence of drugs for 24 hr (taxol, camptothecins and their prodrugs) or 7 days (DMDC and its prodrug) at 37° C. under 5% CO2 in humidified air. When the exposure time of drugs to the cells was 24 hr, the drugs were removed at 24 hr after addition of drugs by washing the cells with the above medium, and the cells were further cultured for 6 days in the same medium without drugs. Therafter, 20 μl of WST-1 (Roche Diagnostics, Mannheim, Germany, Catalog No. 1644807) were added to the cultures, and the cells were further incubated at 37° C. for 6 hr. Cell growth inhibition was calculated as IC50 values according to optical densities at 450 nm and at 655 nm.

[2] = Growth inhibition (cytotoxicity, WST-1) of granulocyte progenitors expanded ex vivo (CFU-GM); format: cell-based, human; conditions: human, drug exposure time; for IC50 at 24 h: then cultured for 6 days without drugs
Protocol: as §1
CD34-positive mononuclear cells derived from the human umbilical cord blood and bone marrow (Veritas Co, Tokyo, Japan, Catalog No.CB009F, ABM019F) were cultured on a confluent monolayer of MS5 (Itoh, K., et al. Reproducible establishment of hematopoietic supportive stromal cells from murine bone marrow. Exp. Hematol. 17, 145-153 (1989)). Mouse stromal cell lines in alpha MEM medium (Life Technologies, Gaithersburg, USA, Catalog No.12571-0063) supplemented with 10% (v/v) horse serum (HS) (Stem Cell Technologies, Vancouver, Canada, Catalog No. 06750), 10% (v/v) fetal bovine serum (FBS) (Stem Cell Technologies, Vancouver, Canada, Catalog No.06450), 50 ng/ml Flt3 ligand (PeproTec EC., London, UK., Catalog No. 300-19), 100 ng/ml SCF (PeproTech EC, London, UK., Catalog No. 300-07), and 50 ng/ml TPO (PeproTech EC, London, England, Catalog No. 300-18) at 37° C. under 5% CO2 in humidified air. Floating hematopoietic cells were collected and stained by monoclonal antibodies against PerCP-anti-CD34 (BD pharMingen, San Diego, USA, Catalog No.340430), PE-anti-CD13 (BD pharMingen, San Diego, USA, Catalog No. 30525X) and FlTC-anti-15(BD pharMingen, SanDiego, USA, Catalog No. PM30525X). Five microlitter of each antibody was added to a […] of cell suspension and incubated at 4° C. for 25 min. After washing with PBS containing 10% (v/v) FCS, the expression of CD antigens were detected by using FACSCalibur (Becton Dickinson, Franklin Lakes, N.J., USA) according to the FACSCalibur Traing mannual (FACStation ver1.1. Becton Dickinson, Franklin Lakes, N.J., USA.). […]

[3] = tested on: HCT116: human colon cancer cell line; test: Growth inhibition (cytotoxicity, WST-8) of HCT116 cells expressing only a low level of microsomal dipeptidase; format: cell-based; conditions: Homo sapiens, HCT-116, drug exposure time, read-out: Cytotoxicity (IC50 in nM) HCT116
Protocol: The activation of the compounds is mediated by microsomal dipeptidase. The inhibitory activities of the compounds is determined against growth of the cells expressing a low level of microsomal dipeptidase, those expressing a high level of microsomal dipeptidase, and granulocyte progenitors that are expanded ex vivo. […] A stable transfectant, HCT116/S5, into which the human microsomal dipeptidase cDNA (herafter called MDP) connected to the CMV promoter was transfected, is used as the cells expressing a high level of microsomal dipeptidase. […] HCT116, HCT116/S5, and granulocyte porogenitors are cultured in the absence and presence of the drugs. […] The IC50 values are determined and compared among HCT116, HCT116/S5, and granulocyte porogenitors.
Transfection of the DNA was carried out by using TransIT-LT2 (PanVera, Madison, USA, Calatog No. MIR2320) according to the manufacturer's instruction. […] The cells that grew in the presence of 1 mg/ml G418 were collected and cultivated in MaCoy5A medium.
as §2, with “Then, 10 μl of WST-8 (Cell Counting Kit-8, Wako, Osaka, Japan, Catalog No.343-07623) were added to the cultures, and the cells were further incubated at 37° C. for 1 or 2 hr. Cell growth inhibition was calculated as IC50 values according to optical densities at 450 nm and at 655 nm.” left out, “drugs.” for “drugs. Therafter, 20 μl of WST-1 (Roche Diagnostics, Mannheim, Germany, Catalog No. 1644807) were added to the cultures, and the cells were further incubated at 37° C. for 6 hr. Cell growth inhibition was calculated as IC50 values according to optical densities at 450 nm and at 655 nm.”

[4] = 24 hr, then drug removed and cells cultured further

| SMILES | Growth inhibition compared among HCT116, HCT116/S5 and granulocyte progenitor cells [1] | IC50 ([1]; 96 hr) [nM] | IC50 at 168 h ([2]; 168 hr (7 days)) [nM] | IC50 ([3]; 96 hr) [nM] | IC50 at 24 h [2] [nM] | IC50 [3, 4] [nM] | IC50 [1, 4] [nM] |
| --- | --- | --- | --- | --- | --- | --- | --- |
| C=C1[C@H](n2ccc(N)nc2=O)O[C@H](CO)[C@H]1O [DMDC, 2′-deoxy-2′-methylidenecytidine, reference compound] | not significantly different | 0.3 | 0.07 | 0.2 |  |  |  |
| CC(=O)O[C@H]1C(=O)[C@@]2(C)[C@H]([C@H](OC(=O)c3ccccc3)[C@]3(O)C[C@H](OC(=O)[C@H](O)[C@@H](NC(=O)c4ccccc4)c4ccccc4)C(C)=C1C3(C)C)[C@]1(OC(C)=O)CO[C@@H]1C[C@@H]2O (relative stereo) [Paclitaxel, [2aR-[2aα,4β,4aβ,6β,9α(αR*,βS*),11α,12α,12aα,12bα]]-β-(benzoylamino)-α-hydroxybenzenepropanoic acid 6,12b-bis(acetyloxy)-12-(benzoyloxy)-2a,3,4,4a,5,6,9,10,11,12,12a,12b-dodecahydro-4,11-dihydroxy-4a,8,13,13-tetramethyl-5-oxo-7,11-methano-1H-cyclodeca[3,4]benz[1,2-b]oxet-9-yl ester, reference compound] | not significantly different |  |  |  | 16 | 2.5 |  |
| CC[C@@]1(O)C(=O)OCc2c1cc1n(c2=O)Cc2cc3ccccc3nc2-1 [Camptothecin, 4(S)-ethyl-4-hydroxy-1H-pyrano[3′,4′:6,7]indolizino[1,2-b]quinoline-3,14(4H,12H)-dione, reference compound] | not significantly different |  |  |  | 6.1 | 19 | 5.6 |
